Test systems include UACC-257 melanoma; RPMI-8226 leukemia; KM12 colon; LOX IMVI melanoma; SNB-19 CNS; CCRF-CEM leukemia; SF-268 CNS; OVCAR-3 ovarian; MDA-MB-231 breast; NCI-H226 lung.
What all share (assay): NCI tumour cell line growth inhibition, 48 h

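How tested: cells in 96-well plates exposed to compound for 48 hours at five concentrations. The concentration for full growth arrest is given as TGI.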

Consider `CCCSc1ccc2[nH]c(N3C(=O)/C(=C/c4ccco4)N=C3c3ccccc3)cc2c1`, for which the TGI with UACC-257 melanoma, with RPMI-8226 leukemia, with KM12 colon, in the assay on LOX IMVI melanoma, with SNB-19 CNS and in the assay on CCRF-CEM leukemia was over 50 µM each time. Besides, the TGI with SF-268 CNS and in the assay with OVCAR-3 ovarian was over 50 µM throughout.

With `CCC12CCCN(Cc3ccccc3)C1c1c([nH]c3ccccc13)C(C(=O)OC)C2` (stereo not given), the TGI with UACC-257 melanoma, in the assay on RPMI-8226 leukemia, in the assay with KM12 colon, with LOX IMVI melanoma, with SNB-19 CNS and with CCRF-CEM leukemia was over 10 µM in each case. The TGI in the assay with MDA-MB-231 breast, in the assay with SF-268 CNS and in the assay on OVCAR-3 ovarian was over 10 µM throughout.

Consider `COc1cc2c(cc1OC)C(C(CO)CO)N(CC(O)CCl)CC2` (stereo not given), for which the TGI in the assay on UACC-257 melanoma, with RPMI-8226 leukemia, in the assay with KM12 colon, in the assay with LOX IMVI melanoma, in the assay with SNB-19 CNS and in the assay with CCRF-CEM leukemia was over 100 µM throughout. Besides, the TGI in the assay on NCI-H226 lung, with SF-268 CNS and in the assay with OVCAR-3 ovarian was over 100 µM throughout.

`C1CCC2(CC1)O[C@@H]1[C@@H](O2)[C@@H](O[C@H]2O[C@@H]3COC4(CCCCC4)O[C@H]3[C@@H]3OC4(CCCCC4)O[C@@H]23)O[C@@H]2COC3(CCCCC3)O[C@@H]12`: the TGI in the assay with UACC-257 melanoma, in the assay on RPMI-8226 leukemia, in the assay on KM12 colon, in the assay with LOX IMVI melanoma, in the assay on SNB-19 CNS and in the assay on CCRF-CEM leukemia was over 100 µM in each case. Also, the TGI in the assay on MDA-MB-231 breast, with SF-268 CNS and in the assay on OVCAR-3 ovarian was over 100 µM in each case.

With `CCCCC(C#N)(OP1(=O)OC(c2ccccc2)C(C)N1C)c1ccccc1` (stereo not given), the TGI in the assay with UACC-257 melanoma was 33.7 µM; in the assay with RPMI-8226 leukemia, 53.2 µM; with KM12 colon, 37.2 µM; in the assay on LOX IMVI melanoma, 36.7 µM; in the assay with SNB-19 CNS, 36.4 µM; with CCRF-CEM leukemia, 40.3 µM. For the same molecule, the TGI in the assay on MDA-MB-231 breast worked out at 30.2 µM; in the assay on SF-268 CNS it was 35.9 µM; in the assay on OVCAR-3 ovarian it was 31 µM.

In the case of `CC(O)c1cc2c(s1)C(=O)c1sccc1C2=O` (stereo not given), the TGI in the assay on UACC-257 melanoma is 0.0358 µM; in the assay on KM12 colon it was 0.593 µM; in the assay on LOX IMVI melanoma it was 0.29 µM; with SNB-19 CNS, 0.292 µM; in the assay with CCRF-CEM leukemia, over 100 µM; in the assay with NCI-H226 lung, 0.428 µM. For the same molecule, the TGI with SF-268 CNS worked out at 0.61 µM.

On to `CCOC(=O)c1cc(-c2cc(OC)c(OC)c([N+](=O)[O-])c2)c([N+](=O)[O-])n1C`, for which the TGI with UACC-257 melanoma, in the assay on KM12 colon, in the assay with SNB-19 CNS, with CCRF-CEM leukemia, in the assay on NCI-H226 lung and in the assay with SF-268 CNS was over 10 µM throughout. In addition, the TGI in the assay with OVCAR-3 ovarian is over 10 µM.

Consider `O=C1Nc2ccccc2C12CCNC2Cc1ccccc1` (stereo not given), for which the TGI with UACC-257 melanoma, in the assay with RPMI-8226 leukemia, in the assay on KM12 colon, in the assay with LOX IMVI melanoma, in the assay with SNB-19 CNS and in the assay with CCRF-CEM leukemia was over 100 µM in each case. Moreover, the TGI with SF-268 CNS and in the assay with OVCAR-3 ovarian was over 100 µM throughout.

Turning to `COc1ccc(-c2cc(=O)c3cc4c(cc3[nH]2)OCO4)cc1OC`, the TGI in the assay on RPMI-8226 leukemia, in the assay with KM12 colon, in the assay with LOX IMVI melanoma, in the assay on SNB-19 CNS, in the assay with CCRF-CEM leukemia and in the assay on NCI-H226 lung was over 100 µM each time. Also, the TGI in the assay with SF-268 CNS and in the assay with OVCAR-3 ovarian was over 100 µM in each case.

Regarding `NC(CCCC(N)P(=O)(O)c1ccccc1)P(=O)(O)c1ccccc1` (stereo not given), the TGI with UACC-257 melanoma, in the assay on RPMI-8226 leukemia, in the assay with KM12 colon, with LOX IMVI melanoma, in the assay with SNB-19 CNS and in the assay on CCRF-CEM leukemia was over 261 µM throughout. Besides, the TGI in the assay on NCI-H226 lung, in the assay with SF-268 CNS and in the assay with OVCAR-3 ovarian was over 261 µM in each case.

On to `O=C(O)c1cc2ccccc2c(N=Nc2ccc(S(=O)(=O)Nc3nccs3)cc2)c1O`, for which the TGI in the assay with UACC-257 melanoma, in the assay on RPMI-8226 leukemia, in the assay on KM12 colon, in the assay on CCRF-CEM leukemia, in the assay with MDA-MB-231 breast and in the assay on NCI-H226 lung was over 100 µM in each case. Besides, the TGI in the assay with SF-268 CNS and in the assay on OVCAR-3 ovarian was over 100 µM each time.

Consider `CCCN1C(=O)CC(C)N(Cc2ccccc2Cl)C1=S` (stereo not given), for which the TGI in the assay with UACC-257 melanoma was 38 µM; in the assay with RPMI-8226 leukemia, 70.4 µM; with KM12 colon, 92.5 µM; in the assay on LOX IMVI melanoma, 54.9 µM; in the assay with SNB-19 CNS it was over 100 µM; in the assay with CCRF-CEM leukemia, over 100 µM. Also, the TGI with MDA-MB-231 breast was determined as 97 µM; in the assay with SF-268 CNS, 86.5 µM; in the assay on OVCAR-3 ovarian, 88.8 µM.

Regarding `Cc1nc(Nc2ccc(Cl)cc2)sc1C(=O)NNc1ccc([N+](=O)[O-])cc1[N+](=O)[O-]`, the TGI with UACC-257 melanoma worked out at 31.3 µM; in the assay with RPMI-8226 leukemia, 51.8 µM; in the assay on KM12 colon it was 33.9 µM; with LOX IMVI melanoma it was 35.7 µM; with SNB-19 CNS it was 30.4 µM; with CCRF-CEM leukemia it was 52.3 µM. The figures for the TGI with NCI-H226 lung, with SF-268 CNS and with OVCAR-3 ovarian were 32.6 µM, 38.8 µM and 38.7 µM, respectively.

As for `C[n+]1c(-c2ccc(/C=N/NC(=N)N/N=C/c3ccc(-c4cn5cc(Cl)ccc5[n+]4C)cc3)cc2)cn2cc(Cl)ccc21`, the TGI in the assay with UACC-257 melanoma, in the assay with RPMI-8226 leukemia, with KM12 colon, with SNB-19 CNS, in the assay on CCRF-CEM leukemia and in the assay with MDA-MB-231 breast was over 100 µM throughout. This molecule yielded a TGI in the assay on SF-268 CNS of over 100 µM.

Turning to `Cc1cccc2c(=O)c([Se]c3coc4c(C)cccc4c3=O)coc12`, the TGI is 38.5 µM in the assay on UACC-257 melanoma; over 100 µM with RPMI-8226 leukemia; 26.8 µM with KM12 colon; 35.5 µM with LOX IMVI melanoma; 47.4 µM with SNB-19 CNS; over 100 µM in the assay on CCRF-CEM leukemia. Besides, the TGI in the assay with NCI-H226 lung was found to be 33.1 µM; with SF-268 CNS, 36.8 µM; in the assay with OVCAR-3 ovarian, 65.6 µM.

The values are drawn from PubChem BioAssay (NCI).
